Drawing on US12077503B2, “Substituted cyclic amides and their use as herbicides” (FMC CORPORATION, priority 2015, dated 2024), this text covers pest or weed control and plant injury for two compounds.

What all share (type): in vivo
In experiment [1] the test system is barnyardgrass (Echinochloa crus-galli). The experiment in a line: Test A preemergence. The settings on record: Echinochloa crus-galli, pre-emergence, 240 h; for pest or weed control at 125 g/ha: 125 g ai/ha, preemergence, 0 to 100 scale where 0 is no effect and 100 is complete control, read-out: Barnyardgrass plant response rating; for pest or weed control at 500 g/ha: 500 g ai/ha, Preemergence, visual injury vs untreated controls after approximately 10 d, read-out: Barnyardgrass plant response rating (0 to 100 scale where 0 is no effect and 100 is complete control). In a few lines:
(§1)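 Compounds were formulated in a non-phytotoxic solvent mixture with surfactant and applied as a preemergence directed soil spray after seeding, or sprayed postemergence over plants 2 to 10 cm tall at the one- to two-leaf stage. Evaluation after about 10 d compared treated with untreated controls, using a scale from 0 (no effect) to 100 (complete control).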

The test system of experiment [2] is ryegrass, Italian (Italian ryegrass, Lolium multiflorum). The experiment can be described thus: Test A preemergence. The settings on record: Lolium multiflorum, pre-emergence, 240 h; for pest or weed control at 125 g/ha: 125 g ai/ha, preemergence, 0 to 100 scale where 0 is no effect and 100 is complete control, read-out: Ryegrass, Italian plant response rating; for pest or weed control at 500 g/ha: 500 g ai/ha, Preemergence, visual injury vs untreated controls after approximately 10 d, read-out: Ryegrass, Italian plant response rating (0 to 100 scale where 0 is no effect and 100 is complete control). The essentials:
as §1

A further experiment has as its system Kochia (Kochia scoparia). The experiment can be described thus: Test A preemergence. Particulars: Bassia scoparia, pre-emergence, 240 h; for pest or weed control at 125 g/ha: 125 g ai/ha, preemergence, 0 to 100 scale where 0 is no effect and 100 is complete control, read-out: Kochia plant response rating; for pest or weed control at 500 g/ha: 500 g ai/ha, Preemergence, visual injury vs untreated controls after approximately 10 d, read-out: Kochia plant response rating (0 to 100 scale where 0 is no effect and 100 is complete control). The essentials:
as §1

In experiment [3] the test system is ragweed (common ragweed, Ambrosia elatior). The experiment in a line: Test A preemergence. The settings on record: Ambrosia artemisiifolia, pre-emergence, 240 h; for pest or weed control at 125 g/ha: 125 g ai/ha, preemergence, 0 to 100 scale where 0 is no effect and 100 is complete control, read-out: Ragweed plant response rating; for pest or weed control at 500 g/ha: 500 g ai/ha, Preemergence, visual injury vs untreated controls after approximately 10 d, read-out: Ragweed plant response rating (0 to 100 scale where 0 is no effect and 100 is complete control). In a few lines: as §1

Experiment [4] deals with giant foxtail (Setaria faberii). The experiment in a line: Test A preemergence. Particulars: Setaria faberi, pre-emergence, 240 h; for pest or weed control at 125 g/ha: 125 g ai/ha, preemergence, 0 to 100 scale where 0 is no effect and 100 is complete control, read-out: Foxtail, Giant plant response rating; for pest or weed control at 500 g/ha: 500 g ai/ha, Preemergence, visual injury vs untreated controls after approximately 10 d, read-out: Foxtail, Giant plant response rating (0 to 100 scale where 0 is no effect and 100 is complete control). The essentials: as §1

For experiment [5], the system named is pigweed (Amaranthus retroflexus). The experiment can be described thus: Test A preemergence. The settings on record: Amaranthus retroflexus, pre-emergence, 240 h; for pest or weed control at 125 g/ha: 125 g ai/ha, preemergence, 0 to 100 scale where 0 is no effect and 100 is complete control, read-out: Pigweed plant response rating; for pest or weed control at 500 g/ha: 500 g ai/ha, Preemergence, visual injury vs untreated controls after approximately 10 d, read-out: Pigweed plant response rating (0 to 100 scale where 0 is no effect and 100 is complete control).

Experiment [6] has as its system barnyardgrass (Echinochloa crus-galli). The experiment can be described thus: Test A postemergence. The settings on record: Echinochloa crus-galli, post-emergence, 240 h, 125 g ai/ha, postemergence, visual injury rating after approximately 10 d; read-out: Barnyardgrass plant response rating (0 to 100 scale, 0 no effect, 100 complete control). In a few lines:
as §1

Experiment [7] concerns blackgrass (Alopecurus myosuroides). The experiment in a line: Test A postemergence. The settings on record: Alopecurus myosuroides, post-emergence, 240 h, 125 g ai/ha, postemergence, visual injury rating after approximately 10 d; read-out: Blackgrass plant response rating (0 to 100 scale, 0 no effect, 100 complete control). In a few lines: as §1
Experiment [8] deals with Galium (catchweed bedstraw, Galium aparine). The experiment can be described thus: Test A postemergence. The settings on record: Galium, post-emergence, 240 h, 125 g ai/ha, postemergence, visual injury rating after approximately 10 d; read-out: Galium plant response rating (0 to 100 scale, 0 no effect, 100 complete control). The essentials:
as §1

Experiment [9] deals with ryegrass, Italian (Italian ryegrass, Lolium multiflorum). The experiment in a line: Test A postemergence. Particulars: Lolium multiflorum, post-emergence, 240 h, 125 g ai/ha, postemergence, visual injury rating after approximately 10 d; read-out: Ryegrass, Italian plant response rating (0 to 100 scale, 0 no effect, 100 complete control). In a few lines:
as §1

Experiment [10] relates to ragweed (common ragweed, Ambrosia elatior). The experiment in a line: Test A postemergence. The settings on record: Ambrosia artemisiifolia, post-emergence, 240 h, 125 g ai/ha, postemergence, visual injury rating after approximately 10 d; read-out: Ragweed plant response rating (0 to 100 scale, 0 no effect, 100 complete control). In a few lines:
as §1

Another experiment has as its system corn (Zea mays). The experiment in a line: Test A postemergence. The settings on record: Zea mays, post-emergence, 240 h, 125 g ai/ha, postemergence, visual injury rating after approximately 10 d; read-out: Corn plant response rating (0 to 100 scale, 0 no effect, 100 complete control). The essentials: as §1
Experiment [11] has as its system giant foxtail (Setaria faberii). The experiment in a line: Test A postemergence. The settings on record: Setaria faberi, post-emergence, 240 h, 125 g ai/ha, postemergence, visual injury rating after approximately 10 d; read-out: Foxtail, Giant plant response rating (0 to 100 scale, 0 no effect, 100 complete control). In a few lines: as §1
Experiment [12] relates to wheat (Triticum aestivum). The experiment in a line: Test A postemergence. Particulars: Triticum aestivum, post-emergence, 240 h, 125 g ai/ha, postemergence, visual injury rating after approximately 10 d; read-out: Wheat plant response rating (0 to 100 scale, 0 no effect, 100 complete control). The essentials: as §1
Experiment [13] deals with pigweed (Amaranthus retroflexus). The experiment can be described thus: Test A postemergence. The settings on record: Amaranthus retroflexus, post-emergence, 240 h, 125 g ai/ha, postemergence, visual injury rating after approximately 10 d; read-out: Pigweed plant response rating (0 to 100 scale, 0 no effect, 100 complete control). The essentials: as §1

Turning to `COc1ccc([C@H]2CN(C)C(=O)[C@@H]2C(=O)Nc2cccc(F)c2F)cc1OC` [Compound 853], the pest or weed control at 125 g/ha was 90% in experiment [1]; 0% in experiment [2]; 40% with Kochia (Kochia scoparia); 0% in [3]; 90% in experiment [4]; 40% in experiment [5]. Besides, the pest or weed control at 125 g/ha in experiment [6] is 90%; in experiment [7] it was 20%; in experiment [8] it was 0%; in experiment [9], 0%; in [10] it was 0%; in [11], 90%. For the same compound, in experiment [13], the pest or weed control at 125 g/ha was 0%. Further, the pest or weed control at 500 g/ha was 100% in experiment [1]; 60% in [2]; 40% in the experiment on Kochia (Kochia scoparia); 20% in [3]; 100% in experiment [4]; 40% in experiment [5]. For the same compound, the plant injury at 125 g/ha (in the experiment on corn (Zea mays); in [12]) was 0% each time.

On to `COc1cc(C(F)(F)F)ccc1[C@H]1CN(C)C(=O)[C@@H]1C(=O)Nc1cccc(F)c1F` [Compound 859], for which the pest or weed control at 125 g/ha was 90% in experiment [1]; 20% in [2]; 50% in the experiment with Kochia (Kochia scoparia); 0% in experiment [3]; 90% in [4]; 60% in [5]. The pest or weed control at 125 g/ha in [6] came to 80%; in experiment [7] it was 30%; in [8], 50%; in experiment [9], 20%; in [10] it was 0%; in [11] it was 80%. In addition, the pest or weed control at 125 g/ha in experiment [13] came out at 20%. For the same compound, the pest or weed control at 500 g/ha in experiment [1] came to 90%; in [2], 80%; in the experiment with Kochia (Kochia scoparia) it was 60%; in [3], 50%; in [4] it was 90%; in experiment [5], 80%. Besides, the values for the plant injury at 125 g/ha (in the experiment with corn (Zea mays); in [12]) were 50% and 20%, respectively.
